Measured values published in patent US20230321012A1 (priority 2021, published 2023).

Assay: clinical
Conditions: for Cmax / Tmax / AUC(0-t): human
Method: Clinical Trial Outline. […] All solid tumor types are eligible for the trial. […] An expansion cohort was included at the RP2D level to confirm safety and tolerability of the combination. […] In Part 2, patients were treated by giving both agents twice daily (BID dosing schedule).
Plasma samples were analyzed for AMXT 1501 concentration via a LC/MS^2 procedure (MI-0028-DB-AB; Agilux Laboratories, Worcester, Massachusetts), and the resulting concentration versus time data were used to estimate individual PK parameters using noncompartmental analysis (NCA).

[1] = Part 1 Cohort 1, 80 mg QD, Cycle 1 Day 1
[2] = Part 1 Cohort 1, 80 mg QD, Cycle 1 Day 14
[3] = Part 1 Cohort 1, 80 mg QD, Cycle 1 Day 28, +DFMO 500 mg/day
[4] = Part 1 Cohort 2, 160 mg QD, Cycle 1 Day 1
[5] = Part 1 Cohort 2, 160 mg QD, Cycle 1 Day 14
[6] = Part 1 Cohort 2, 160 mg QD, Cycle 1 Day 28, +DFMO 500 mg/day
[7] = Part 1 Cohort 3, 400 mg QD, Cycle 1 Day 14
[8] = Part 1 Cohort 3, 400 mg QD, Cycle 1 Day 28, +DFMO 500 mg/day
[9] = Part 1 Cohort 3, 400 mg QD, Day 1
[10] = Part 1 Cohort 4, 1200 mg QD, Cycle 1 Day 1
[11] = Part 1 Cohort 4, 1200 mg QD, Cycle 1 Day 14
[12] = Part 1 Cohort 5, 1800 mg QD, Cycle 1 Day 1
[13] = Part 1 Cohort 5, 1800 mg QD, Cycle 1 Day 14
[14] = Part 1 Cohort 5, 1800 mg QD, Cycle 1 Day 28, +DFMO 500 mg/day
[15] = Part 1 Cohort 5, 1800 mg QD, Cycle 2 Day 14, n=1

CCCCCCCCCCCCCCCC(=O)NCCCC[C@@H](N)C(=O)NCCCNCCCCNCCCN [AMXT 1501, D-lys(palmitoyl)-spermine]
Cohort 5 patient AUC versus mouse plasma AUC at efficacious dose (Cohort 5 patients vs 2.5 mg/kg SC in 4T1 mice): 1.72 times
Tlast Mean [1]: 13.2 h
Tlast Median [1]: 6 h
Tlast Mean [2]: 12 h
Tlast Median [2]: 6 h
Tlast Mean [3]: 18 h
Tlast Median [3]: 24 h
Tlast Mean [4]: 15 h
Tlast Median [4]: 15 h
Tlast Mean [5]: 15 h
Tlast Median [5]: 15 h
Tlast Mean [6]: 10.5 h
Tlast Median [6]: 6 h
Tlast Mean [7]: 19.5 h
Tlast Median [7]: 24 h
Tlast Mean [8]: 24 h
Tlast Median [8]: 24 h
Tlast Mean [9]: 25.5 h
Tlast Median [9]: 24 h
Tlast Mean [10]: 40 h
Tlast Median [10]: 24 h
Tlast Mean [11]: 24 h
Tlast Median [11]: 24 h
Tlast Mean [12]: 54 h
Tlast Median [12]: 60 h
Tlast Mean [13]: 24 h
Tlast Median [13]: 24 h
Tlast Mean [14]: 24 h
Tlast Median [14]: 24 h
Tlast Mean [15]: 24 h
Tlast Median [15]: 24 h
sustained plasma level versus predicted efficacious concentration (100 nM, 57 ng/mL) (adult patients, 1,200 mg or 800 mg per day, split BID): above this predicted efficacious concentration value
Cmax (in vivo, 160 mg, Cmax Mean, Part 1 Cohort 2, 160 mg QD, Cycle 1 Day 1): 19.5 ng/mL
Tmax (in vivo, 1800 mg, Tmax Mean, Part 1 Cohort 5, 1800 mg QD, Cycle 1 Day 1): 10.5 h
AUC(0-t) (plasma, oral, 80 mg, AUC0-6 hr Mean, Part 1 Cohort 1, 80 mg QD, Cycle 1 Day 1): 29.6 ng·h/mL
AUC(0-t) (plasma, oral, 80 mg, AUC0-6 hr Mean, Part 1 Cohort 1, 80 mg QD, Cycle 1 Day 14): 91 ng·h/mL
AUC(0-t) (plasma, oral, 80 mg, AUC0-6 hr Median, Part 1 Cohort 1, 80 mg QD, Cycle 1 Day 1): 29.9 ng·h/mL
AUC(0-t) (plasma, oral, 80 mg, AUC0-6 hr Median, Part 1 Cohort 1, 80 mg QD, Cycle 1 Day 14): 51.3 ng·h/mL
AUC(0-t) (plasma, oral, 80 mg, AUC0-t Mean, Part 1 Cohort 1, 80 mg QD, Cycle 1 Day 1): 92 ng·h/mL
AUC(0-t) (plasma, oral, 80 mg, AUC0-t Mean, Part 1 Cohort 1, 80 mg QD, Cycle 1 Day 14): 262 ng·h/mL
AUC(0-t) (plasma, oral, 80 mg, AUC0-t Median, Part 1 Cohort 1, 80 mg QD, Cycle 1 Day 1): 45.3 ng·h/mL
AUC(0-t) (plasma, oral, 80 mg, AUC0-t Median, Part 1 Cohort 1, 80 mg QD, Cycle 1 Day 14): 51.3 ng·h/mL
Cmax (plasma, oral, 80 mg, Cmax Mean, Part 1 Cohort 1, 80 mg QD, Cycle 1 Day 1): 11.7 ng/mL
Cmax (plasma, oral, 80 mg, Cmax Mean, Part 1 Cohort 1, 80 mg QD, Cycle 1 Day 14): 26.2 ng/mL
Cmax (plasma, oral, 80 mg, Cmax Median, Part 1 Cohort 1, 80 mg QD, Cycle 1 Day 1): 10.6 ng/mL
Cmax (plasma, oral, 80 mg, Cmax Median, Part 1 Cohort 1, 80 mg QD, Cycle 1 Day 14): 13.8 ng/mL
Tmax (plasma, oral, 80 mg, Tmax Mean, Part 1 Cohort 1, 80 mg QD, Cycle 1 Day 1): 4.8 h
Tmax (plasma, oral, 80 mg, Tmax Mean, Part 1 Cohort 1, 80 mg QD, Cycle 1 Day 14): 4.67 h
Tmax (plasma, oral, 80 mg, Tmax Median, Part 1 Cohort 1, 80 mg QD, Cycle 1 Day 1): 4 h
Tmax (plasma, oral, 80 mg, Tmax Median, Part 1 Cohort 1, 80 mg QD, Cycle 1 Day 14): 4 h
AUC(0-t) (plasma, oral, 160 mg, AUC0-6 hr Mean, Part 1 Cohort 2, 160 mg QD, Cycle 1 Day 1): 74.8 ng·h/mL
AUC(0-t) (plasma, oral, 160 mg, AUC0-6 hr Mean, Part 1 Cohort 2, 160 mg QD, Cycle 1 Day 14): 43.4 ng·h/mL
AUC(0-t) (plasma, oral, 160 mg, AUC0-6 hr Median, Part 1 Cohort 2, 160 mg QD, Cycle 1 Day 1): 67.1 ng·h/mL
AUC(0-t) (plasma, oral, 160 mg, AUC0-6 hr Median, Part 1 Cohort 2, 160 mg QD, Cycle 1 Day 14): 49.8 ng·h/mL
AUC(0-t) (plasma, oral, 160 mg, AUC0-t Mean, Part 1 Cohort 2, 160 mg QD, Cycle 1 Day 1): 169 ng·h/mL
AUC(0-t) (plasma, oral, 160 mg, AUC0-t Mean, Part 1 Cohort 2, 160 mg QD, Cycle 1 Day 14): 105 ng·h/mL
AUC(0-t) (plasma, oral, 160 mg, AUC0-t Median, Part 1 Cohort 2, 160 mg QD, Cycle 1 Day 1): 130 ng·h/mL
AUC(0-t) (plasma, oral, 160 mg, AUC0-t Median, Part 1 Cohort 2, 160 mg QD, Cycle 1 Day 14): 59.7 ng·h/mL
Cmax (plasma, oral, 160 mg, Cmax Mean, Part 1 Cohort 2, 160 mg QD, Cycle 1 Day 14): 14.1 ng/mL
Cmax (plasma, oral, 160 mg, Cmax Median, Part 1 Cohort 2, 160 mg QD, Cycle 1 Day 1): 17.8 ng/mL
Cmax (plasma, oral, 160 mg, Cmax Median, Part 1 Cohort 2, 160 mg QD, Cycle 1 Day 14): 16.2 ng/mL
Tmax (plasma, oral, 160 mg, Tmax Mean, Part 1 Cohort 2, 160 mg QD, Cycle 1 Day 1): 4 h
Tmax (plasma, oral, 160 mg, Tmax Mean, Part 1 Cohort 2, 160 mg QD, Cycle 1 Day 14): 5 h
Tmax (plasma, oral, 160 mg, Tmax Median, Part 1 Cohort 2, 160 mg QD, Cycle 1 Day 1): 4 h
Tmax (plasma, oral, 160 mg, Tmax Median, Part 1 Cohort 2, 160 mg QD, Cycle 1 Day 14): 5 h
AUC(0-t) (plasma, oral, 400 mg, AUC0-6 hr Mean, Part 1 Cohort 3, 400 mg QD, Cycle 1 Day 14): 289 ng·h/mL
AUC(0-t) (plasma, oral, 400 mg, AUC0-6 hr Mean, Part 1 Cohort 3, 400 mg QD, Day 1): 183 ng·h/mL
AUC(0-t) (plasma, oral, 400 mg, AUC0-6 hr Median, Part 1 Cohort 3, 400 mg QD, Cycle 1 Day 14): 304 ng·h/mL
AUC(0-t) (plasma, oral, 400 mg, AUC0-6 hr Median, Part 1 Cohort 3, 400 mg QD, Day 1): 207 ng·h/mL
AUC(0-t) (plasma, oral, 400 mg, AUC0-t Mean, Part 1 Cohort 3, 400 mg QD, Cycle 1 Day 14): 957 ng·h/mL
AUC(0-t) (plasma, oral, 400 mg, AUC0-t Mean, Part 1 Cohort 3, 400 mg QD, Day 1): 714 ng·h/mL
AUC(0-t) (plasma, oral, 400 mg, AUC0-t Median, Part 1 Cohort 3, 400 mg QD, Cycle 1 Day 14): 1100 ng·h/mL
AUC(0-t) (plasma, oral, 400 mg, AUC0-t Median, Part 1 Cohort 3, 400 mg QD, Day 1): 906 ng·h/mL
Cmax (plasma, oral, 400 mg, Cmax Mean, Part 1 Cohort 3, 400 mg QD, Cycle 1 Day 14): 66.4 ng/mL
Cmax (plasma, oral, 400 mg, Cmax Mean, Part 1 Cohort 3, 400 mg QD, Day 1): 47 ng/mL
Cmax (plasma, oral, 400 mg, Cmax Median, Part 1 Cohort 3, 400 mg QD, Cycle 1 Day 14): 73.5 ng/mL
Cmax (plasma, oral, 400 mg, Cmax Median, Part 1 Cohort 3, 400 mg QD, Day 1): 52.5 ng/mL
Tmax (plasma, oral, 400 mg, Tmax Mean, Part 1 Cohort 3, 400 mg QD, Cycle 1 Day 14): 5 h
Tmax (plasma, oral, 400 mg, Tmax Mean, Part 1 Cohort 3, 400 mg QD, Day 1): 5 h
Tmax (plasma, oral, 400 mg, Tmax Median, Part 1 Cohort 3, 400 mg QD, Cycle 1 Day 14): 5 h
Tmax (plasma, oral, 400 mg, Tmax Median, Part 1 Cohort 3, 400 mg QD, Day 1): 5 h
AUC(0-t) (plasma, oral, 1200 mg, AUC0-6 hr Mean, Part 1 Cohort 4, 1200 mg QD, Cycle 1 Day 1): 197 ng·h/mL
AUC(0-t) (plasma, oral, 1200 mg, AUC0-6 hr Mean, Part 1 Cohort 4, 1200 mg QD, Cycle 1 Day 14): 1130 ng·h/mL
